According to ChEMBL document CHEMBL1147136, “Constituents of Oxandra cf. xylopioides with anti-inflammatory activity” (J Nat Prod, 2007):
Calls of active or inactive are those of the source. The calls are words filed in the database; no cut-off is given here.

Experiments:
Mus musculus [1] = assay: Reduction of carrageenan-induced paw edema volume in mouse at 125 mg/kg, po after 1 hr relative to control; type: functional; parameters: scale not given: the % may be the effect or the level left
Mus musculus [2] = assay: Reduction of carrageenan-induced paw edema volume in mouse at 125 mg/kg, po after 3 hrs relative to control; type: functional; parameters: scale not given: the % may be the effect or the level left
Mus musculus [3] = assay: Reduction of carrageenan-induced paw edema volume in mouse at 125 mg/kg, po after 5 hrs relative to control; type: functional; parameters: scale not given: the % may be the effect or the level left
RAW264.7 [4] = assay: Cytotoxicity against mouse RAW264.7 cells at 100 uM by MTT assay; type: cell-based; details: raw264.7, 100 µM
RAW264.7 [5] = assay: Effect on IL1-beta production in mouse RAW264.7 cells at 100 uM; type: functional
RAW264.7 [6] = assay: Reduction of IL1-beta mRNA synthesis in mouse RAW264.7 cells at 100 uM; type: functional, cell-based

## CC(C)[C@@]1(C)CCC([C@H]2CC[C@@]3(C)[C@@H]4CC[C@H]5C(C)(C)[C@@H](O)CC[C@@]56C[C@@]46CC[C@]23C)CO1 (stereo partly drawn) [BERENJENOL]
Mus musculus [1]
  Activity: 44%
Mus musculus [2]
  Activity: 64%
Mus musculus [3]
  Activity: 51%
RAW264.7 [4]
  Activity: Not Active

## COc1cc(C)c(OC)c(O)c1C(C)C [ISOESPINTANOL]
Mus musculus [2]
  Activity: 43%
RAW264.7 [4]
  Activity: Not Active
RAW264.7 [5]
  Activity: 72%
RAW264.7 [6]
  Activity: Active
